These results are taken from paper PMC13372681, “A natural depsipeptide antibiotic binds the E-site of the bacterial ribosome” (Nature, 2026).

The subject of assay [1] is M. bovis BCG Pasteur ATCC 35734. The settings on record: Middlebrook 7H9 + 10% OADC + 0.05% Tween-80.
In another assay the test system is M. tuberculosis H37Ra. The following applies: Middlebrook 7H9 + 10% OADC + 0.05% Tween-80.
For another assay, the system named is E. coli ΔtolC ΔbamB. The following applies: broth microdilution. For orientation: Dilution methods test growth across graded concentrations, often in twofold steps.
A further assay relates to S. aureus USA 300. The settings on record: USA 300.
Another assay relates to E. coli C1508. The settings on record: broth microdilution, MDR clinical isolate.
The subject of another assay is E. coli ribosome. Description: Translocation assay. The class given is biochemical. The settings on record: 250 μM negamycin; pre-translocation complex, toeprint read-out. As for the experimental part: In vitro translocation assay was carried out using the model mRNA MFK (Supplementary Table 9) as described. The mRNA was prepared by in vitro transcription of a PCR product amplified using the primers MF_F1, MF_F2, and MF_R (Supplementary Table 8). A 4.5 μl reaction containing 1 μM E. coli ribosomes, 0.5 μM mRNA, 1 μM tRNAi^Met, 0.5 μM radiolabelled NV1 primer (Supplementary Table 8), 2 U μl^−1 RiboLock RNase Inhibitor (Thermo), and antibiotic tested (50 μM MKM or 250 μM negamycin) in pure system buffer (PSB; 9 mM Mg(CH3COO)2, 5 mM K3PO4, 95 mM potassium glutamate, 5 mM NH4Cl, 0.5 mM CaCl2, 1 mM spermidine, 8 mM putrescine, 1 mM dithiothreitol, pH 7.3)[90] was incubated for 20 min at 37 °C. Then N-acetyl-Phe-N-tRNA^Phe (ref. [91]), in which amino acid is attached to the A3′ hydroxyl of the tRNA via an amide bond, was added to the final concentration of 2 μM followed by 10 min incubation at 37 °C. After addition of the E. coli EF-G and GTP to the final concentrations of 0.2 μM and 533 μM, respectively and incubation for 5 min at 30 °C, 1 µl of the mixture of AMV reverse transcriptase (Roche) and dNTPs (2.1 U/µl AMV reverse transcriptase and 2 mM dNTPs in PSB) was added, and the reactions were incubated for another 5 min at 30 °C. […]

In brackets after ≈: the same amount, converted by molar mass. Like-named read-outs stand apart in the source and are kept apart here. Where a SMILES comes first, the peptide text is derived from it. Bridges are numbered along the chain shown (N, C = ends). [ ]: non-standard residue; d: D form. dOrn = NCCC[C@@H](N)C(=O)O

The MIC is the lowest concentration found to suppress growth. In the case of `C[C@@H](O)[C@@H]1NC(=O)[C@@H](CCCNC(=N)N)NC(=O)[C@@H](CCCNC(=N)N)NC(=O)[C@@H](CC(N)=O)NC(=O)[C@@H](NC(=O)[C@@H](Cc2ccccc2)NC(=O)[C@@H](CCCNC(=N)N)NC(=O)[C@H](N)CCCNC(=N)N)[C@@H](C)OC(=O)[C@H](Cc2c[nH]cn2)NC1=O` [MKM-B] (H-[dR][dR][dF]T[dN][dR][dR]TH; ester 4-C), the MIC with Bacillus subtilis 168 stood at 32 µg/mL (≈ 26.1 µM); in assay [1], 0.25 µg/mL; in the assay with M. tuberculosis H37Ra it was 0.25 µg/mL; against E. coli ΔtolC ΔbamB (Ca+ MHB Medium), 4 µg/mL (≈ 3.26 µM); in the assay on E. coli ΔtolC ΔbamB (MOPS Minimal Medium), 1 µg/mL (≈ 0.816 µM); in the assay with E. coli ΔtolC ΔbamB (RPMI Medium), 1 µg/mL (≈ 0.816 µM). Further, the MIC was 64 µg/mL (≈ 52.2 µM) with S. aureus USA 300; 32 µg/mL (≈ 26.1 µM) against S. aureus ATCC 29213; 16 µg/mL (≈ 13.1 µM) against E. coli C1508 (Ca+ MHB Medium); 4 µg/mL (≈ 3.26 µM) against E. coli C1508 (MOPS Minimal Medium); 4 µg/mL (≈ 3.26 µM) in the assay with E. coli C1508 (RPMI Medium).

With `C[C@@H](O)[C@@H]1NC(=O)[C@@H](CCCNC(=N)N)NC(=O)[C@@H](CCCNC(=N)N)NC(=O)[C@@H](CC(N)=O)NC(=O)[C@@H](NC(=O)[C@@H](Cc2ccccc2)NC(=O)[C@@H](CCCN)NC(=O)[C@@H](CCCNC(=N)N)NC(=O)[C@@H](N)CCCNC(=N)N)[C@@H](C)OC(=O)[C@H](Cc2c[nH]cn2)NC1=O` [MKM-E] (H-R[dR][dOrn][dF]T[dN][dR][dR]TH; ester 5-C; N-terminus assumed), the MIC in the assay with Bacillus subtilis 168 was 32 µg/mL (≈ 23.9 µM); in assay [1], 1 µg/mL; in the assay on M. tuberculosis H37Ra it was 1 µg/mL; against E. coli ΔtolC ΔbamB (Ca+ MHB Medium), 2 µg/mL (≈ 1.49 µM); against E. coli ΔtolC ΔbamB (MOPS Minimal Medium) it was 0.5 µg/mL (≈ 0.373 µM); in the assay on E. coli ΔtolC ΔbamB (RPMI Medium), less than 0.5 µg/mL. Also, the MIC was 16 µg/mL (≈ 11.9 µM) against S. aureus USA 300; 32 µg/mL (≈ 23.9 µM) against S. aureus ATCC 29213; 8 µg/mL (≈ 5.97 µM) in the assay on E. coli C1508 (Ca+ MHB Medium); 1 µg/mL (≈ 0.747 µM) against E. coli C1508 (MOPS Minimal Medium); 1 µg/mL (≈ 0.747 µM) against E. coli C1508 (RPMI Medium).

Turning to `CN(CC(=O)O)NC(=O)C[C@H](N)C[C@@H](O)CN` [negamycin], the “inhibition of EF-G-dependent translocation” value in the assay with E. coli ribosome is given as “notably inhibited”.
